Laboratory results from patent publication US11186564B2, “Dual NAV1.2/5HT2a inhibitors for treating CNS disorders” (Sunovion Pharmaceuticals Inc., priority 2016, dated 2021).
Structures can show the parent of a compound that is named as a salt.

Legend:
[1] = biological target: human sodium channel NaV1.2 (Homo sapiens, UniProt Q99250); assay: NaV1.2 inhibition, automated patch-clamp (Q-Patch HTX), slow inactivated state (state C); type: cell-based; details: hNaV1.2 CHO cells, slow inactivated state; for inhibition at 1 µM: 1 μM compound, read-out: NaV1.2 (% inh), 1 μM; for inhibition at 10 µM: 10 μM compound, read-out: NaV1.2 (% inh), 10 μM; for IC50: read-out: NaV1.2 IC50
Summary of the method: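 CHO K-1 cells stably expressing human NaV1.2, whole-cell automated patch clamp, holding −100 mV; slow-inactivated state (state C) read at a 5 ms step to 0 mV after 10 s at −50 mV and 15 ms at −90 mV. Percent inhibition vs vehicle; IC50 by nonlinear least-squares fit.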

[2] = biological target: T1, recombinant human serotonin receptor 5-HT2A (Homo sapiens, UniProt P28223); assay: 5-HT2A antagonist Ca2+ assay in CHO-K1 cells (method A aequorin luminescence / method B FLIPR fluorescence); type: cell-based; details: antagonist mode vs EC80 of reference agonist, method A or B, read-out: 5HT2A IC50
T1 construct: expressed in transfected cells; method B: loaded with Ca2+ dye
Summary of the method: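 Method A: CHO-K1 cells co-expressing human 5-HT2A and mitochondrial apoaequorin were given reference agonist at EC80 15 min after compound, with luminescence read. Method B: dye-loaded 5-HT2A CHO-K1 cells were pretreated with compound, then given serotonin at EC80, with FLIPR fluorescence read. IC50s came from nonlinear fits of percent inhibition.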

T1 sequence (P28223 whole entry): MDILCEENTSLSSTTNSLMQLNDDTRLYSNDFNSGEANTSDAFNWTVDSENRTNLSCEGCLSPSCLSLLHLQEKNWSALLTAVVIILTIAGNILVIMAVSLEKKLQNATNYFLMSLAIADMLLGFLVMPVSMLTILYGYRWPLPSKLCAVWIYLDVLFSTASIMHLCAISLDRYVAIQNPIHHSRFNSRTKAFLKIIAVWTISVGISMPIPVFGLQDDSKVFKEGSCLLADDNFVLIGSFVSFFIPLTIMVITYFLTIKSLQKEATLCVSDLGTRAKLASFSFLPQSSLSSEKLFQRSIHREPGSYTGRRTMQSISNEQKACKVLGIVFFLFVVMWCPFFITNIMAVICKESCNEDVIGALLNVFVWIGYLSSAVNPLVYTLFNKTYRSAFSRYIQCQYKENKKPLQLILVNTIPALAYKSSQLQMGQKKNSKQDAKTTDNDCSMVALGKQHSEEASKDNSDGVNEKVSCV
Chain of human sodium channel NaV1.2 (Q99250 whole entry): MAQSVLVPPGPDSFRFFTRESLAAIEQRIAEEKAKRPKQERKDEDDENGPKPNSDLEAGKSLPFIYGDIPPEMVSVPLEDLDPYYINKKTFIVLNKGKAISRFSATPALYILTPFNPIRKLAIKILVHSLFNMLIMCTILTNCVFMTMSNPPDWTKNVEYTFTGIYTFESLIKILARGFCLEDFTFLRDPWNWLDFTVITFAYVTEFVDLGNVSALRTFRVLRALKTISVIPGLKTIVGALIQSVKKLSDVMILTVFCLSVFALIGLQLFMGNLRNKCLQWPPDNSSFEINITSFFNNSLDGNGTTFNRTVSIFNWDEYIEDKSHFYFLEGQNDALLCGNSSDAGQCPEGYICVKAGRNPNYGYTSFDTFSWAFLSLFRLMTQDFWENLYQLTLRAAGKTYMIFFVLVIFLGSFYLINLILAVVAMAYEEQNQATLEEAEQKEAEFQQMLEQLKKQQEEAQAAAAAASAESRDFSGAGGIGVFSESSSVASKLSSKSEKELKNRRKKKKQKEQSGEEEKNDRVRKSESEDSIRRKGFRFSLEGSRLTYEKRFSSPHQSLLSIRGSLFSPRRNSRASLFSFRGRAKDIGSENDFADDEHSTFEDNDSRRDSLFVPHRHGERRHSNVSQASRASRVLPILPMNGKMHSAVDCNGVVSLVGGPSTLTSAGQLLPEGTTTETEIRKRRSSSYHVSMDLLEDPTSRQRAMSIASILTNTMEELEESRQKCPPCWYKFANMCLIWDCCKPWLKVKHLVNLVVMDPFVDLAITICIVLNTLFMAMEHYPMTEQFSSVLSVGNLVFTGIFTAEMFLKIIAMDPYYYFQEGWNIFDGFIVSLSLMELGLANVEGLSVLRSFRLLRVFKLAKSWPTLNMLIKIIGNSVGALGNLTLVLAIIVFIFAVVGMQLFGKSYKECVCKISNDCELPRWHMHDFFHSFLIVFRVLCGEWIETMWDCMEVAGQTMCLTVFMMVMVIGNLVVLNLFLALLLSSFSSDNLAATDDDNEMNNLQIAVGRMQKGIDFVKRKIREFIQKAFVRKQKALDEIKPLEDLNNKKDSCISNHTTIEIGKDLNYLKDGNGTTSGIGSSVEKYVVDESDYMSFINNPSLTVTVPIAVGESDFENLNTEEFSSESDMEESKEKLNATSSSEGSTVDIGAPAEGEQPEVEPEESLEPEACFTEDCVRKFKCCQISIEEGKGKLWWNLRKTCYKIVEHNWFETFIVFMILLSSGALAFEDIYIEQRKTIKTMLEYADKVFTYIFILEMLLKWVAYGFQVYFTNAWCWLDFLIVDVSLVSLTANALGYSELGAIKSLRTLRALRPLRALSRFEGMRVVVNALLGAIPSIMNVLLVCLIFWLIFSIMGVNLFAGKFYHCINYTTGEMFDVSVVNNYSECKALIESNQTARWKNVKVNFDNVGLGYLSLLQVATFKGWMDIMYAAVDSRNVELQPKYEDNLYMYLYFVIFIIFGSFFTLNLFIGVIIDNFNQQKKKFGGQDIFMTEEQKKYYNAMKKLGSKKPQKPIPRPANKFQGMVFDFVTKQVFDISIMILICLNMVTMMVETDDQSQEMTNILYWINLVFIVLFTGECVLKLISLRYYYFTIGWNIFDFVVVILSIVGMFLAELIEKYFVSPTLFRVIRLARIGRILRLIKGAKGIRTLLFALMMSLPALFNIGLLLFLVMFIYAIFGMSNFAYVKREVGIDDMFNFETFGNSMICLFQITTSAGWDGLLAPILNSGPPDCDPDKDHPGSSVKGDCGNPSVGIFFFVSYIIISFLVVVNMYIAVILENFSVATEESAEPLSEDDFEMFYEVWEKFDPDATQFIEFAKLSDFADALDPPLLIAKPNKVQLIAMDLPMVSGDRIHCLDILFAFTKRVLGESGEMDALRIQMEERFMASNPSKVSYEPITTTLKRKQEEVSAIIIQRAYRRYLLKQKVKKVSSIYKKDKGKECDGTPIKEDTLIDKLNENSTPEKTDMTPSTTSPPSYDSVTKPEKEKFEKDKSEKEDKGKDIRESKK

| SMILES | inhibition at 1 µM [1] | IC50 [2] | inhibition at 10 µM [1] | IC50 [1] |
| --- | --- | --- | --- | --- |
| CC(C1CCc2ccccc21)N1CCC(Oc2ccc(F)cc2)CC1 (stereo not shown) [Example 123, 1-(1-(2,3-dihydro-1H-inden-1-yl)ethyl)-4-(4-fluorophenoxy)piperidine] | 71% | 440 nM |  |  |
| COc1ccc2c(c1)C(CN1CCC(Oc3cccc(C)n3)CC1)CC2 (stereo not shown) [Example 124, 2-((1-((6-methoxy-2,3-dihydro-1H-inden-1-yl)methyl)piperidin-4-yl)oxy)-6-methylpyridine] | 34% | 120 nM |  |  |
| c1cnc(OC2CCN(CC3CCc4ccccc43)CC2)nc1 (stereo not shown) [Example 125, 2-((1-((2,3-dihydro-1H-inden-1-yl)methyl)piperidin-4-yl)oxy) pyrimidine] | -3% | 80 nM |  |  |
| Fc1ccc(OC2CCN(CC3CCc4cccnc43)CC2)cc1 (stereo not shown) [Example 128, 7-((4-(4-fluorophenoxy)piperidin-1-yl)methyl)-6,7-dihydro-5H-cyclopenta[b]pyridine] |  | 50 nM | 72% |  |
| COc1ccccc1OC1CCN(CC2c3ccccc3OC2(C)C)CC1 (stereo not shown) [Example 129, 1-((2,2-dimethyl-2,3-dihydrobenzofuran-3-yl)methyl)-4-(2-methoxyphenoxy)piperidine] |  | 400 nM |  | 1060 nM |
| CC1(C)Oc2ccccc2C1CN1CCC(Oc2ccccc2)CC1 (stereo not shown) [Example 131, 1-((2,2-dimethyl-2,3-dihydrobenzofuran-3-yl)methyl)-4-phenoxypiperidine] | -1% | 290 nM |  |  |
| Fc1ccc(OC2CCN(CC3COc4ccccc43)CC2)cc1 (stereo not shown) [Example 134, 1-((2,3-dihydrobenzofuran-3-yl)methyl)-4-(4-fluorophenoxy)piperidine] | 14% | 20 nM |  |  |
| COc1ccccc1OC1CCN(CC2Cc3ccccc3C2)CC1 [Example 136, 1-((2,3-dihydro-1H-inden-2-yl)methyl)-4-(2-methoxyphenoxy)piperidine] | 50% | 60 nM |  |  |
| Cc1ccccc1OC1CCN(CC2Cc3cccnc3C2)CC1 (stereo not shown) [Example 137, 6-((4-(o-tolyloxy)piperidin-1-yl)methyl)-6,7-dihydro-5H-cyclopenta[b] pyridine] | 44% | 40 nM |  |  |
| N#Cc1ccccc1OC1CCN(CC2Cc3cccnc3C2)CC1 (stereo not shown) [Example 138, 2-((1-((6,7-dihydro-5H-cyclopenta[b]pyridin-6-yl)methyl)piperidin-4-yl)oxy) benzonitrile] | 10% | 130 nM |  |  |
| COc1ccccc1OC1CCN(CC2Cc3cccnc3C2)CC1 (stereo not shown) [Example 139, 6-((4-(2-methoxyphenoxy)piperidin-1-yl)methyl)-6,7-dihydro-5H-cyclopenta[b]pyridine] | -10% | 180 nM |  |  |
| COc1ccccc1O[C@@H]1CCN(CC2Cc3ccccc3C2)[C@H](C)C1 [Example 140, (2R,4R)-1-((2,3-dihydro-1H-inden-2-yl)methyl)-4-(2-methoxyphenoxy)-2-methylpiperidine] |  | 630 nM |  | 510 nM |
| COc1ccccc1O[C@H]1CCN(CC2Cc3ccccc3C2)[C@H](C)C1 [Example 141, (2R,4S)-1-((2,3-dihydro-1H-inden-2-yl)methyl)-4-(2-methoxyphenoxy)-2-methylpiperidine] |  | 200 nM |  | 1010 nM |
| COc1ccccc1O[C@@H]1CCN(CC2Cc3ccccc3C2)[C@@H](C)C1 [Example 142, (2S,4R)-1-((2,3-dihydro-1H-inden-2-yl)methyl)-4-(2-methoxyphenoxy)-2-methylpiperidine] |  | 300 nM |  | 910 nM |
| COc1ccccc1O[C@@H]1CCN(CC2Cc3ccccc3C2)C[C@@H]1C [Example 144, (3S,4R)-1-((2,3-dihydro-1H-inden-2-yl)methyl)-4-(2-methoxyphenoxy)-3-methylpiperidine] |  | 270 nM |  | 540 nM |
| COc1ccccc1O[C@H]1CCN(CC2Cc3cccnc3C2)[C@@H](C)C1 (stereo partly drawn) [Example 150, 6-(((2S,4S)-4-(2-methoxyphenoxy)-2-methylpiperidin-1-yl)methyl)-6,7-dihydro-5H-cyclopenta[b]pyridine] | 14% | 720 nM |  |  |
| Fc1ccc(OC2CCN(CC3Cc4ccccc4C3)CC2)cc1 [Example 154, 1-((2,3-dihydro-1H-inden-2-yl)methyl)-4-(4-fluorophenoxy)piperidine] | 35% | 170 nM |  |  |
| Fc1ccc(OC2CCN(CC3Cc4cccnc4C3)CC2)cc1 (stereo not shown) [Example 155, 6-((4-(4-fluorophenoxy)piperidin-1-yl)methyl)-6,7-dihydro-5H-cyclopenta[b]pyridine dihydrochloride] |  | 40 nM |  | 1000 nM |
| Fc1ccc(OC2CCN(CC3Cc4ccncc4C3)CC2)cc1 (stereo not shown) [Example 158, 6-((4-(4-fluorophenoxy)piperidin-1-yl)methyl)-6,7-dihydro-5H-cyclopenta[c]pyridine] | -15% | 150 nM |  |  |

| SMILES | inhibition at 1 µM [1] | IC50 [2] | inhibition at 10 µM [1] | IC50 [1] |
| --- | --- | --- | --- | --- |
| OC1(CN2CCC(Oc3ccc(F)cc3)CC2)COCc2ccccc21 (stereo not shown) [Example 159, 4-((4-(4-fluorophenoxy)piperidin-1-yl)methyl)isochroman-4-ol] |  | 20 nM | 77% |  |
| Fc1ccc(OC2CCN(CC3COCc4ccccc43)CC2)cc1 (stereo not shown) [Example 160, 4-(4-fluorophenoxy)-1-(isochroman-4-ylmethyl)piperidine] | 32% | 130 nM |  |  |
| N#Cc1ccccc1OC1CCN(CC2CCOc3ccccc32)CC1 (stereo not shown) [Example 161, 2-((1-(chroman-4-ylmethyl)piperidin-4-yl)oxy)benzonitrile] | 12% | 50 nM |  |  |
| COc1ccccc1OC1CCN(CC2CCOc3ccccc32)CC1 (stereo not shown) [Example 162, 1-(chroman-4-ylmethyl)-4-(2-methoxyphenoxy)piperidine] | 32% | 90 nM |  |  |
| Fc1ccc(OC2CCN(CC3CCOc4ccccc43)CC2)cc1 (stereo not shown) [Example 165, 1-(chroman-4-ylmethyl)-4-(4-fluorophenoxy)piperidine] |  | 20 nM |  | 910 nM |
| N#Cc1ccc(OC2CCN(CC3CCOc4ccccc43)CC2)cc1 (stereo not shown) [Example 166, 4-((1-(chroman-4-ylmethyl)piperidin-4-yl)oxy)benzonitrile] | -2% | 310 nM |  |  |
| O=C1CCC(c2ccc(F)cc2)=NN1CN1CCC(Oc2ccc(F)cc2)CC1 [Example 167, 2-((4-(4-fluorophenoxy)piperidin-1-yl)methyl)-6-(4-fluorophenyl)-4,5-dihydropyridazin-3(2H)-one] | 13% | 90 nM |  |  |
| Fc1ccc(OC2CCN(CCC3CCCCO3)CC2)cc1 (stereo not shown) [Example 168, 4-(4-fluorophenoxy)-1-(2-(tetrahydro-2H-pyran-2-yl)ethyl)piperidine] | 2% | 130 nM |  |  |
| Fc1ccc(OC2CCN(CCC3CCCOC3)CC2)cc1 (stereo not shown) [Example 169, 4-(4-fluorophenoxy)-1-(2-(tetrahydro-2H-pyran-3-yl)ethyl)piperidine] | 10% | 280 nM |  |  |
| Fc1ccc(OC2CCN(CCC3CCOCC3)CC2)cc1 [Example 170, 4-(4-fluorophenoxy)-1-(2-(tetrahydro-2H-pyran-4-yl)ethyl)piperidine] | 5% | 1110 nM |  |  |
| Fc1ccc(OC2CCN(CCC3CCc4ccccc43)CC2)cc1 (stereo not shown) [Example 171, 1-(2-(2,3-dihydro-1H-inden-1-yl)ethyl)-4-(4-fluorophenoxy)piperidine] |  | 60 nM |  | 40 nM |
| Fc1ccc(OC2CCN(CCC3CCc4ncccc43)CC2)cc1 (stereo not shown) [Example 172, 5-(2-(4-(4-fluorophenoxy)piperidin-1-yl)ethyl)-6,7-dihydro-5H-cyclopenta[b]pyridine] | 34% | 120 nM |  |  |
| Fc1ccc(OC2CCN(CCC3CCc4cnccc43)CC2)cc1 (stereo not shown) [Example 173, 5-(2-(4-(4-fluorophenoxy)piperidin-1-yl)ethyl)-6,7-dihydro-5H-cyclopenta[c]pyridine] |  | 10 nM |  | 3170 nM |
| Fc1ccc(OC2CCN(CCC3CCc4ccncc43)CC2)cc1 (stereo not shown) [Example 174, 7-(2-(4-(4-fluorophenoxy)piperidin-1-yl)ethyl)-6,7-dihydro-5H-cyclopenta[c]pyridine] | 12% | 10 nM |  |  |
| Fc1ccc(OC2CCN(CCC3CCc4cccnc43)CC2)cc1 (stereo not shown) [Example 175, 7-(2-(4-(4-fluorophenoxy)piperidin-1-yl)ethyl)-6,7-dihydro-5H-cyclopenta[b]pyridine] |  | 10 nM |  | 440 nM |
| Fc1ccc(OC2CCN(CCC3COc4ccccc43)CC2)cc1 (stereo not shown) [Example 176, 1-(2-(2,3-dihydrobenzofuran-3-yl)ethyl)-4-(4-fluorophenoxy)piperidine] | 41% | 80 nM |  |  |
| Fc1ccc(OC2CCN(CCC3COc4cccnc43)CC2)cc1 (stereo not shown) [Example 177, 3-(2-(4-(4-fluorophenoxy)piperidin-1-yl)ethyl)-2,3-dihydrofuro[3,2-b] pyridine] | 34% | 10 nM |  |  |
| Fc1ccc(OC2CCN(CCC3Cc4ccccc4C3)CC2)cc1 [Example 178, 1-(2-(2,3-dihydro-1H-inden-2-yl)ethyl)-4-(4-fluorophenoxy)piperidine] |  | 30 nM |  | 1900 nM |
| c1ccc(OC2CCN(CCC3COCc4ccccc43)CC2)cc1 (stereo not shown) [Example 179, 1-(2-(isochroman-4-yl)ethyl)-4-phenoxypiperidine] |  | 60 nM |  | 610 nM |
